This note sets out measurements from ChEMBL document CHEMBL6103575, “Design, synthesis and evaluation of (E)-1-(4-(2-(1H-pyrazol-5-yl)vinyl)phenyl) derivatives as next generation selective RET inhibitors overcoming RET solvent front mutations (G810C/R)” (Eur J Med Chem, 2025).

SMILES strings stand for the structures.

Test [1] relates to BaF3. The test can be described thus: Antiproliferative activity against mouse BaF3 cells harbouring CCDC6-RET assessed as inhibition of cell proliferation incubated for 72 hrs by CCK-8 assay. It counts as functional, cell-based. As to conditions: BaF3, 72 h. On the technique in general: Tetrazolium assays rely on reduction of a dye to a coloured formazan, in cell work by metabolically active cells.

Test [2] can be described thus: Induction of apoptosis in mouse BaF3 cells harboring CCDC6-RET G810C mutant assessed as viable cells at 300 nM incubated for 48 hrs by Annexin V-PE staining based flow cytometry analysis (Rvb =86.47%). It counts as functional. As to conditions: read-out: Activity. In general terms: In flow cytometry, cells or beads pass a laser one at a time.
The nature of test [3]: Induction of apoptosis in mouse BaF3 cells harboring CCDC6-RET G810R mutant assessed as viable cells at 30 nM incubated for 48 hrs by Annexin V-PE staining based flow cytometry analysis (Rvb =86.40%). As to conditions: read-out: Activity. Type of test: functional.
The nature of test [4]: Induction of apoptosis in mouse BaF3 cells harboring CCDC6-RET G810R mutant assessed as viable cells at 300 nM incubated for 48 hrs by Annexin V-PE staining based flow cytometry analysis (Rvb =86.40%). Type of test: functional. As to conditions: read-out: Activity.
Test [5] is described as follows: Induction of apoptosis in mouse BaF3 cells harboring CCDC6-RET G810R mutant assessed as necrotic cells at 300 nM incubated for 48 hrs by Annexin V-PE staining based flow cytometry analysis (Rvb =0.30%). Type of test: functional.
Test [6] in a line: Induction of cell cycle arrest in mouse BaF3 cells harboring CCDC6-RET assessed as accumulation of cells at S phase at 100 nM incubated for 24 hrs by propidium iodide staining based analysis (reference value: 13.27%). Type of test: functional.
Test [7] in a line: Induction of cell cycle arrest in mouse BaF3 cells harboring CCDC6-RET G810C mutant assessed as accumulation of cells at S phase at 30 nM incubated for 24 hrs by propidium iodide staining based analysis (reference value: 12.47%). It counts as functional.
Test [8] has as its system BaF3. The test can be described thus: Inhibition of SHC phosphorylation in mouse BaF3 cells harboring CCDC6-RET G810C mutant incubated for 12 hrs by Western blotting analysis. It counts as cell-based. As to conditions: dose <= 300.0 nM. (In western blotting, separated proteins are transferred to a membrane and probed.)

For orientation: IC50 means the concentration needed to halve the response being measured. As to `COc1cncc(-c2cn[nH]c2/C=C/c2ccc(NC(=O)Nc3cc(C(C)(C)C(F)(F)F)on3)c(Cl)c2)c1`, the IC50 with BaF3 [1] turned out to be 13 nM. Also, the viability at 0.3 µM stood at 8.22% in test [2] and 22.5% in test [4]. Further, the viability at 0.03 µM in test [3] amounted to 87.4%. Besides, the Activity came to 0.07% in test [5], 7.33% in test [6] and 11.11% in test [7]. The inhibition result in the test on BaF3 [8] is “Dose-dependent-effect”.
